# Organism: Rattus norvegicus
# Assay: DrugMatrix - Regimen: Daily Repeat
# Format: toxicity, organism-based, Sprague-Dawley
# Design: regimen Daily Repeat, gender Male, age 6-8 weeks
# Conditions: in vivo, po, route oral GAVAGE, vehicle .5 % CMC; for ABSOLUTE BASOPHIL / ABSOLUTE EOSINOPHIL / ABSOLUTE LYMPHOCYTE / ABSOLUTE MONOCYTE / ABSOLUTE SEGMENTED NEUTROPHIL / BASOPHIL / EOSINOPHIL / ERYTHROCYTE COUNT / HEMATOCRIT / HEMOGLOBIN / LEUKOCYTE COUNT / LYMPHOCYTE / MEAN CORPUSCULAR HEMOGLOBIN / MEAN CORPUSCULAR HEMOGLOBIN CONCENTRATION / MEAN CORPUSCULAR VOLUME / MONOCYTE / NEUTROPHIL / NUCLEATED RED BLOOD CELLS / PLATELET COUNT: tissue Blood; for ALANINE AMINOTRANSFERASE / ALBUMIN / ALKALINE PHOSPHATASE / ASPARTATE AMINOTRANSFERASE / BLOOD UREA NITROGEN / CARBON DIOXIDE / CHLORIDE / CHOLESTEROL / CREATINE PHOSPHOKINASE / CREATININE / GLUCOSE / LACTATE DEHYDROGENASE / LIPASE / PHOSPHORUS / POTASSIUM / SODIUM / TOTAL BILIRUBIN / TOTAL PROTEIN / URIC ACID: tissue Plasma
# [1] = 0 mg/kg, 72 h, dose level Control, time 3 day
# [2] = 0 mg/kg, 120 h, dose level Control, time 5 day
# [3] = 50 mg/kg, 72 h, dose level Low, time 3 day
smiles,measurement,setting,value
CNC(=C[N+](=O)[O-])NCCSCc1ccc(CN(C)C)o1 [RANITIDINE],ABSOLUTE BASOPHIL,[1],0 CELLS/uL
same,ABSOLUTE EOSINOPHIL,[1],0 CELLS/uL
same,ABSOLUTE LYMPHOCYTE,[1],12269.67 CELLS/uL
same,ABSOLUTE MONOCYTE,[1],160.33 CELLS/uL
same,ABSOLUTE SEGMENTED NEUTROPHIL,[1],970 CELLS/uL
same,BASOPHIL,[1],0%
same,EOSINOPHIL,[1],0%
same,ERYTHROCYTE COUNT,[1],5.76 x10E6/uL
same,HEMATOCRIT,[1],36.57%
same,HEMOGLOBIN,[1],14.22 G/DL
same,LEUKOCYTE COUNT,[1],13.4 x10E3/uL
same,LYMPHOCYTE,[1],91.67%
same,MEAN CORPUSCULAR HEMOGLOBIN,[1],24.67 pg
same,MEAN CORPUSCULAR HEMOGLOBIN CONCENTRATION,[1],38.85 G/DL
same,MEAN CORPUSCULAR VOLUME,[1],63.52 fL
same,MONOCYTE,[1],1.17%
same,NEUTROPHIL,[1],7.17%
same,NUCLEATED RED BLOOD CELLS,[1],0.33 /100WBC
same,PLATELET COUNT,[1],1250.83 x10E3/uL
same,ALANINE AMINOTRANSFERASE,[1],49.17 u/L
same,ALBUMIN,[1],4.33 G/DL
same,ALKALINE PHOSPHATASE,[1],378.5 u/L
same,ASPARTATE AMINOTRANSFERASE,[1],82.17 u/L
same,BLOOD UREA NITROGEN,[1],15 mg/dL
same,CARBON DIOXIDE,[1],34.33 mmol/L
same,CHLORIDE,[1],99.17 MEQ/L
same,CHOLESTEROL,[1],71.17 mg/dL
same,CREATINE PHOSPHOKINASE,[1],258.67 u/L
same,CREATININE,[1],0.18 mg/dL
same,GLUCOSE,[1],142.67 mg/dL
same,LACTATE DEHYDROGENASE,[1],154.33 u/L
same,LIPASE,[1],9 u/L
same,PHOSPHORUS,[1],11.67 mg/dL
same,POTASSIUM,[1],7.13 MEQ/L
same,SODIUM,[1],142.22 MEQ/L
same,TOTAL BILIRUBIN,[1],0.18 mg/dL
same,TOTAL PROTEIN,[1],5.77 G/DL
same,URIC ACID,[1],1.55 mg/dL
same,ABSOLUTE BASOPHIL,[2],0 CELLS/uL
same,ABSOLUTE EOSINOPHIL,[2],23.33 CELLS/uL
same,ABSOLUTE LYMPHOCYTE,[2],14943.67 CELLS/uL
same,ABSOLUTE MONOCYTE,[2],32 CELLS/uL
same,ABSOLUTE SEGMENTED NEUTROPHIL,[2],1084.33 CELLS/uL
same,BASOPHIL,[2],0%
same,EOSINOPHIL,[2],0.17%
same,ERYTHROCYTE COUNT,[2],5.71 x10E6/uL
same,HEMATOCRIT,[2],35.28%
same,HEMOGLOBIN,[2],14.27 G/DL
same,LEUKOCYTE COUNT,[2],16.08 x10E3/uL
same,LYMPHOCYTE,[2],93%
same,MEAN CORPUSCULAR HEMOGLOBIN,[2],25.02 pg
same,MEAN CORPUSCULAR HEMOGLOBIN CONCENTRATION,[2],40.43 G/DL
same,MEAN CORPUSCULAR VOLUME,[2],61.82 fL
same,MONOCYTE,[2],0.17%
same,NEUTROPHIL,[2],6.67%
same,NUCLEATED RED BLOOD CELLS,[2],0.33 /100WBC
same,PLATELET COUNT,[2],1274 x10E3/uL
same,ALANINE AMINOTRANSFERASE,[2],54.17 u/L
same,ALBUMIN,[2],4.22 G/DL
same,ALKALINE PHOSPHATASE,[2],373.17 u/L
same,ASPARTATE AMINOTRANSFERASE,[2],81.83 u/L
same,BLOOD UREA NITROGEN,[2],16.67 mg/dL
same,CARBON DIOXIDE,[2],30.33 mmol/L
same,CHLORIDE,[2],99 MEQ/L
same,CHOLESTEROL,[2],71 mg/dL
same,CREATINE PHOSPHOKINASE,[2],273.5 u/L
same,CREATININE,[2],0.22 mg/dL
same,GLUCOSE,[2],141.83 mg/dL
same,LACTATE DEHYDROGENASE,[2],153.67 u/L
same,LIPASE,[2],10.33 u/L
same,PHOSPHORUS,[2],11.38 mg/dL
same,POTASSIUM,[2],7.08 MEQ/L
same,SODIUM,[2],142.75 MEQ/L
same,TOTAL BILIRUBIN,[2],0.18 mg/dL
same,TOTAL PROTEIN,[2],6.1 G/DL
same,URIC ACID,[2],1.67 mg/dL
same,ABSOLUTE BASOPHIL,[3],0 CELLS/uL
same,ABSOLUTE EOSINOPHIL,[3],82.33 CELLS/uL
same,ABSOLUTE LYMPHOCYTE,[3],12453.33 CELLS/uL
same,ABSOLUTE MONOCYTE,[3],303 CELLS/uL
same,ABSOLUTE SEGMENTED NEUTROPHIL,[3],1061.33 CELLS/uL
same,BASOPHIL,[3],0%
same,EOSINOPHIL,[3],0.67%
same,ERYTHROCYTE COUNT,[3],5.58 x10E6/uL
same,HEMATOCRIT,[3],36.1%
same,HEMOGLOBIN,[3],14.47 G/DL
same,LEUKOCYTE COUNT,[3],13.9 x10E3/uL
same,LYMPHOCYTE,[3],89.67%
same,MEAN CORPUSCULAR HEMOGLOBIN,[3],25.9 pg
same,MEAN CORPUSCULAR HEMOGLOBIN CONCENTRATION,[3],40.1 G/DL
same,MEAN CORPUSCULAR VOLUME,[3],64.73 fL
same,MONOCYTE,[3],2%
same,NEUTROPHIL,[3],7.67%
same,NUCLEATED RED BLOOD CELLS,[3],0.33 /100WBC
same,PLATELET COUNT,[3],1180.67 x10E3/uL
same,ALANINE AMINOTRANSFERASE,[3],50.67 u/L
same,ALBUMIN,[3],4.17 G/DL
same,ALKALINE PHOSPHATASE,[3],358 u/L
same,ASPARTATE AMINOTRANSFERASE,[3],90.67 u/L
same,BLOOD UREA NITROGEN,[3],16.33 mg/dL
same,CARBON DIOXIDE,[3],27.33 mmol/L
same,CHLORIDE,[3],101.33 MEQ/L
same,CHOLESTEROL,[3],81.67 mg/dL
same,CREATINE PHOSPHOKINASE,[3],304 u/L
same,CREATININE,[3],0.2 mg/dL
same,GLUCOSE,[3],157.33 mg/dL
same,LACTATE DEHYDROGENASE,[3],312 u/L
same,LIPASE,[3],10 u/L
same,PHOSPHORUS,[3],15.03 mg/dL
same,POTASSIUM,[3],7.11 MEQ/L
same,SODIUM,[3],147.4 MEQ/L
same,TOTAL BILIRUBIN,[3],0.2 mg/dL
same,TOTAL PROTEIN,[3],5.83 G/DL
same,URIC ACID,[3],2.3 mg/dL

# Reference: ChEMBL document CHEMBL3885881, “DrugMatrix”
